Data published in ChEMBL document CHEMBL5696440, “Inhibition of BET recruitment to chromatin as an effective treatment for MLL-fusion leukaemia” (Nature, 2011).

Key:
K562 = assay: cells; settings: Homo sapiens, K562, 4 h
NOMO-1 = assay: Antiproliferative activity against human NOMO-1 cells harboring MLL-AF9 assessed as inhibition of cell growth incubated for […] by CellTiter-Aqueous One assay; assay type: functional, cell-based; settings: NOMO-1, 4 h
[1] = Half life in NOD:SCID mouse at 30 mg/kg, ip administered for 24 hrs by LC-MS/MS analysis; assay type: ADME, organism-based; settings: in vivo
[2] = Cmax in NOD:SCID mouse at 30 mg/kg, ip administered for 24 hrs by LC-MS/MS analysis; assay type: ADME, organism-based; settings: in vivo
[3] = AUC (0 to infinity) in NOD:SCID mouse at 30 mg/kg, ip administered for 24 hrs by LC-MS/MS analysis; assay type: ADME, organism-based; settings: in vivo
[4] = molecular target: Nucleoside diphosphate kinase A/B (Homo sapiens, UniProt P15531+P22392); assay: Inhibition of NME1/NME2 (unknown origin) incubated for 1 hr by colloidal coomassie staining based LC-MS/MS analysis; assay type: protein assay
[5] = molecular target: Kappa-type opioid receptor (Homo sapiens, UniProt P41145); assay: Inhibition of human OPRK1 in presence of GTPgS
[6] = molecular target: Serotonin 3 (5-HT3) receptor; assay: Inhibition of human 5-HT3 by intracellular Ca2+ fluorescence assay; assay type: cell-based
Aurora kinase B = Aurora kinase B (Homo sapiens, UniProt Q96GD4); assay: Inhibition of His6-tagged human Aurora B kinase at pH 7.4 incubated for 60 mins by Alexa Fluor 488 staining based fluorescence anisotropy analysis
[7] = molecular target: Solute carrier organic anion transporter family member 1B1 (Homo sapiens, UniProt Q9Y6L6); assay: Inhibition of human OATP1B1 by FLINT imaging analysis
[8] = molecular target: Muscarinic acetylcholine receptor M2 (Homo sapiens, UniProt P08172); assay: Inhibition of human M2 by intracellular Ca2+ fluorescence assay; assay type: functional, cell-based
[9] = molecular target: 5-hydroxytryptamine receptor 2A (Homo sapiens, UniProt P28223); assay: Inhibition of human 5-HT2A by intracellular Ca2+ luminescence assay; assay type: functional, cell-based
[10] = molecular target: Potassium voltage-gated channel subfamily A member 5 (Homo sapiens, UniProt P22460); assay: Inhibition of human Kv1.5 by blocker ionworks assay
[11] = molecular target: 5-hydroxytryptamine receptor 2C (Homo sapiens, UniProt P28335); assay: Inhibition of human 5-HT2C by intracellular Ca2+ luminescence assay; assay type: functional, cell-based
D(1A) dopamine receptor = D(1A) dopamine receptor (Homo sapiens, UniProt P21728); assay: Inhibition of His6-tagged human dopamine 1 receptor […] incubated for 1 hr by TR-FRET assay
[12] = molecular target: Phosphatidylinositol 4,5-bisphosphate 3-kinase catalytic subunit gamma isoform (Homo sapiens, UniProt P48736); assay: Inhibition of His6-tagged human PI3K-gamma […] incubated for 1 hr by TR-FRET assay
[13] = molecular target: Acetylcholine receptor subunit alpha (Homo sapiens, UniProt P02708); assay: Inhibition of human alpha 1 nAChR by intracellular Ca2+ fluorescence assay; assay type: cell-based
[14] = molecular target: Voltage-dependent L-type calcium channel subunit alpha-1C (Homo sapiens, UniProt Q13936); assay: Inhibition of human CaV1.2 by intracellular Ca2+ fluorescence assay; assay type: cell-based
Vasopressin V1a receptor = Vasopressin V1a receptor (Homo sapiens, UniProt P37288); assay: Inhibition of human V1a by intracellular Ca2+ fluorescence assay; assay type: functional, cell-based
[15] = molecular target: Serine/threonine-protein kinase Chk1 (Homo sapiens, UniProt O14757); assay: Inhibition of CHEK1 (unknown origin) incubated for 1 hr by colloidal coomassie staining based LC-MS/MS analysis
[16] = molecular target: Alpha-1B adrenergic receptor (Homo sapiens, UniProt P35368); assay: Inhibition of human adrenergic alpha 1B by intracellular Ca2+ fluorescence assay; assay type: functional, cell-based
Mu-type opioid receptor = Mu-type opioid receptor (Homo sapiens, UniProt P35372); assay: Inhibition of human OPRM1 in presence of GTPgS
D(2) dopamine receptor = D(2) dopamine receptor (Homo sapiens, UniProt P14416); assay: Inhibition of human dopamine 2 receptor in presence of GTPgS
[17] = molecular target: 3',5'-cyclic-AMP phosphodiesterase 4B (Homo sapiens, UniProt Q07343); assay: Inhibition of human PDE4B by luminescence assay
[18] = molecular target: Muscarinic acetylcholine receptor M1 (Homo sapiens, UniProt P11229); assay: Inhibition of human M1 by intracellular Ca2+ fluorescence assay; assay type: functional, cell-based
[19] = molecular target: Sodium channel protein type 5 subunit alpha (Homo sapiens, UniProt Q14524); assay: Inhibition of human NaV1.5 by blocker ionworks assay
[20] = molecular target: Voltage-gated potassium channel, IKs; KCNQ1(Kv7.1)/KCNE1(MinK) (Homo sapiens, UniProt P15382+P51787); assay: Inhibition of human KCNQ1/KCNE1 by blocker ionworks assay; assay type: protein-complex assay
[21] = molecular target: Tyrosine-protein kinase Lck (Homo sapiens, UniProt P06239); assay: Inhibition of His6-tagged human LCK at pH 7.4 incubated for 60 mins by Alexa Fluor 488 staining based fluorescence anisotropy analysis
[22] = molecular target: Glycogen synthase kinase-3 beta (Homo sapiens, UniProt P49841); assay: Inhibition of His6-tagged human GSK3beta at pH 7.4 incubated for 60 mins by Alexa Fluor 488 staining based fluorescence anisotropy analysis
[23] = molecular target: Prostaglandin G/H synthase 2 (Homo sapiens, UniProt P35354); assay: Inhibition of human COX-2 by FLINT assay
in vivo = settings: NOD:SCID, mouse, ip, 30 mg/kg
[24] = molecular target: Sodium-dependent dopamine transporter (Homo sapiens, UniProt Q01959); assay: Inhibition of human DAT by scintillation proximity assay
[25] = molecular target: Cyclin-dependent kinase 2 (Homo sapiens, UniProt P24941); assay: Inhibition of CDK2 (unknown origin) incubated for 1 hr by colloidal coomassie staining based LC-MS/MS analysis
[26] = molecular target: Beta-2 adrenergic receptor (Homo sapiens, UniProt P07550); assay: Inhibition of human beta2 adrenoceptor […] incubated for 1 hr by TR-FRET assay
MV4-11 = assay: Antiproliferative activity against human MV4-11 cells assessed as inhibition of cell growth incubated for 72 hrs by CellTiter-Glo assay; assay type: functional, cell-based
[27] = molecular target: 5-hydroxytryptamine receptor 1B (Homo sapiens, UniProt P28222); assay: Inhibition of human 5-HT1B in presence of GTPgS
Histamine H1 receptor = Histamine H1 receptor (Homo sapiens, UniProt P35367); assay: Inhibition of human HRH1 by intracellular Ca2+ luminescence assay; assay type: functional, cell-based
[28] = AUC (0 to infinity) in NOD:SCID mouse at 30 mg/kg, ip administered for 36 hrs by LC-MS/MS analysis; assay type: ADME, organism-based; settings: in vivo
[29] = Cmax in NOD:SCID mouse at 30 mg/kg, ip administered for 36 hrs by LC-MS/MS analysis; assay type: ADME, organism-based; settings: in vivo
Substance-P receptor = Substance-P receptor (Homo sapiens, UniProt P25103); assay: Inhibition of human NK1 by intracellular Ca2+ luminescence assay; assay type: functional, cell-based

D(1A) dopamine receptor, sequence (P21728 whole entry, canonical isoform): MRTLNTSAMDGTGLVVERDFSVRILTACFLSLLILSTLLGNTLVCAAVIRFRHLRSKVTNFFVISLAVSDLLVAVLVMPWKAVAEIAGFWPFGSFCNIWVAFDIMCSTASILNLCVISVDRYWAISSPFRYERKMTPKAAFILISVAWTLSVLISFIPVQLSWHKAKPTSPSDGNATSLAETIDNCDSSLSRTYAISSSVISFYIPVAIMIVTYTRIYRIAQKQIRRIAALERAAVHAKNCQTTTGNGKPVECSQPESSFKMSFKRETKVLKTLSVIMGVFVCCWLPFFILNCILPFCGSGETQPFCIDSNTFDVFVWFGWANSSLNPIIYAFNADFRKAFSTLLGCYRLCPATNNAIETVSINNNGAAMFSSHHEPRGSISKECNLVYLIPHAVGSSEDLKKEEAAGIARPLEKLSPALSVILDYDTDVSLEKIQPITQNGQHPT
Alpha-1B adrenergic receptor, sequence (P35368 whole entry): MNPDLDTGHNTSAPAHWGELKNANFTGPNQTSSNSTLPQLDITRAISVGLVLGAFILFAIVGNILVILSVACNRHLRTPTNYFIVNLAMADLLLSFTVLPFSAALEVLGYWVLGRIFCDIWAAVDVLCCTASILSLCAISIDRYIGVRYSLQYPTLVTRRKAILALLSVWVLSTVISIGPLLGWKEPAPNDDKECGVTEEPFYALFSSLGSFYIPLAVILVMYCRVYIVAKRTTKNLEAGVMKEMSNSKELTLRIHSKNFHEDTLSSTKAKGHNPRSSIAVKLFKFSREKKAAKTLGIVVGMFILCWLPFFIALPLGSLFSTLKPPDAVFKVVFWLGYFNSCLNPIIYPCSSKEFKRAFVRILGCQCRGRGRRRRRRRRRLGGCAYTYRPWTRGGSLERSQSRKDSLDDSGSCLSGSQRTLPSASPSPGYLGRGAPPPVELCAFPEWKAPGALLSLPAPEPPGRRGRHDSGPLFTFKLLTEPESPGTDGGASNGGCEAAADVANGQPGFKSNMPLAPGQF
Solute carrier organic anion transporter family member 1B1, sequence (Q9Y6L6 whole entry): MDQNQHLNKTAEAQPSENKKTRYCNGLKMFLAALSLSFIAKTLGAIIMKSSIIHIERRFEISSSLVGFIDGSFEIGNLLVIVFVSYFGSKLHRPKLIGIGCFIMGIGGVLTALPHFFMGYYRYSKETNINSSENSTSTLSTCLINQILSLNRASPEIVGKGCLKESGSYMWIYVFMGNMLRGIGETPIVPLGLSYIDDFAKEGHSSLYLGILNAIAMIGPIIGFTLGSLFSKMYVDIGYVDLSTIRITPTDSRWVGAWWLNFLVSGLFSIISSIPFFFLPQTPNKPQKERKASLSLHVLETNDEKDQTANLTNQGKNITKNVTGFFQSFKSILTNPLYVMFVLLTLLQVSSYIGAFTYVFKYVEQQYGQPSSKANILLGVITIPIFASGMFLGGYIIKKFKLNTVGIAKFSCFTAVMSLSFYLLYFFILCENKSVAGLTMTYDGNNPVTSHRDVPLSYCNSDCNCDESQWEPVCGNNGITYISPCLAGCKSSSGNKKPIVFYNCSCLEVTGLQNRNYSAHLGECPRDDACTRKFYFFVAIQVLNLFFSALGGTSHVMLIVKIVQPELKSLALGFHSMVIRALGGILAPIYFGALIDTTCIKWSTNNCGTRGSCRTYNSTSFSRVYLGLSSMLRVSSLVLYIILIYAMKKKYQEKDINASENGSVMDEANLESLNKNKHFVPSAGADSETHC
Prostaglandin G/H synthase 2, sequence (P35354 whole entry): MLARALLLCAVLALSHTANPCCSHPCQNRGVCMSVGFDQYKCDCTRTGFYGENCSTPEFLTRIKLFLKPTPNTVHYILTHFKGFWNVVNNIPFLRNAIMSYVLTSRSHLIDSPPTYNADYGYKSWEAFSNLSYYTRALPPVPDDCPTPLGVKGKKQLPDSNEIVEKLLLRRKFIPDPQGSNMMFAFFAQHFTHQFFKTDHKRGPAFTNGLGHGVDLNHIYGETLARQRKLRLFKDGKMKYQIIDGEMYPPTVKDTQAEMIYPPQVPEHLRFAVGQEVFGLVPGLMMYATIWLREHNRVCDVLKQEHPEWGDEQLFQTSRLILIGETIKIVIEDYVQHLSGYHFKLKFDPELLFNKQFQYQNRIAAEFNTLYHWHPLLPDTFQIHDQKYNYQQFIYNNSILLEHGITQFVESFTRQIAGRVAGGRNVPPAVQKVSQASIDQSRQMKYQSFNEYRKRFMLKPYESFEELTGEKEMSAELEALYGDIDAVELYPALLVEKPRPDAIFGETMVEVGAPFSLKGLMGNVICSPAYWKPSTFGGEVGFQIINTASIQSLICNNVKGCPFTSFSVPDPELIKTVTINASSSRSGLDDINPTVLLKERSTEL
Phosphatidylinositol 4,5-bisphosphate 3-kinase catalytic subunit gamma isoform, sequence (P48736 whole entry, canonical isoform): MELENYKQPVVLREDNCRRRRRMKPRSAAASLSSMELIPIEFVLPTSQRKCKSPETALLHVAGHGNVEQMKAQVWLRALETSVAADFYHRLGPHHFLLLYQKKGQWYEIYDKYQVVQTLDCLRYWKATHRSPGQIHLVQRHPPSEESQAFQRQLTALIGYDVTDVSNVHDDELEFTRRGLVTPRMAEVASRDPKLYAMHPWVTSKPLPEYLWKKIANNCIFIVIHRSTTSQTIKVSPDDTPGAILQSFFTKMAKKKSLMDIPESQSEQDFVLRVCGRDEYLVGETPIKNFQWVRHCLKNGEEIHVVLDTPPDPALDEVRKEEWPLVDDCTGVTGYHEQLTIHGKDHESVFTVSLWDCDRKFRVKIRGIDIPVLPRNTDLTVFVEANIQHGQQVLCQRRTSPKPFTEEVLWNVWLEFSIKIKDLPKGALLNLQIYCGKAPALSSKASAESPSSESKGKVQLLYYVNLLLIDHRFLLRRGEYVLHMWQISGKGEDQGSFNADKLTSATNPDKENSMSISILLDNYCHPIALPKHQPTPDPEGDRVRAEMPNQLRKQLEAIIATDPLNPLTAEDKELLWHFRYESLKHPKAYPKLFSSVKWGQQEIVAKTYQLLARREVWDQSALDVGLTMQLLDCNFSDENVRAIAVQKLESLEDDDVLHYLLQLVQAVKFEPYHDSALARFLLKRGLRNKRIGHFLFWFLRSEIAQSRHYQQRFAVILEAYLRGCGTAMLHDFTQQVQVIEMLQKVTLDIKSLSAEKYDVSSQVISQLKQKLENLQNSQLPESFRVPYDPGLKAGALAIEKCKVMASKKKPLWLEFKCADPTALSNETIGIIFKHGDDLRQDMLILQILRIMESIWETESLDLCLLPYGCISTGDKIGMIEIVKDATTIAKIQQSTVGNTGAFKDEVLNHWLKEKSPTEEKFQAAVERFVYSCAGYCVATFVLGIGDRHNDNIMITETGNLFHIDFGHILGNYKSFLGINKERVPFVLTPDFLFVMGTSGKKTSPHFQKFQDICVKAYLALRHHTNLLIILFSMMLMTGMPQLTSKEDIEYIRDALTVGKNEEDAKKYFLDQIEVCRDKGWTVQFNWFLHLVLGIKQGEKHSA
5-hydroxytryptamine receptor 1B, sequence (P28222 whole entry): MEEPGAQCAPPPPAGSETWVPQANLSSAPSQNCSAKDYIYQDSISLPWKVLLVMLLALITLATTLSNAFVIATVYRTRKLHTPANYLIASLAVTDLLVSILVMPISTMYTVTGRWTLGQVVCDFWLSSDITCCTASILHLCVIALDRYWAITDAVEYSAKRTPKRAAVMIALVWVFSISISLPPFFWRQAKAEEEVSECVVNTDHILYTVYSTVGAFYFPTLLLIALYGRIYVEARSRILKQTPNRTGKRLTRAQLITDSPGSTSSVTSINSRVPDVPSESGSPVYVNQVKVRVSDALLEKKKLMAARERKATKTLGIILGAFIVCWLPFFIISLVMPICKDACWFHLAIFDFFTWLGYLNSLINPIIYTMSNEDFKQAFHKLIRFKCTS
D(2) dopamine receptor, sequence (P14416 whole entry): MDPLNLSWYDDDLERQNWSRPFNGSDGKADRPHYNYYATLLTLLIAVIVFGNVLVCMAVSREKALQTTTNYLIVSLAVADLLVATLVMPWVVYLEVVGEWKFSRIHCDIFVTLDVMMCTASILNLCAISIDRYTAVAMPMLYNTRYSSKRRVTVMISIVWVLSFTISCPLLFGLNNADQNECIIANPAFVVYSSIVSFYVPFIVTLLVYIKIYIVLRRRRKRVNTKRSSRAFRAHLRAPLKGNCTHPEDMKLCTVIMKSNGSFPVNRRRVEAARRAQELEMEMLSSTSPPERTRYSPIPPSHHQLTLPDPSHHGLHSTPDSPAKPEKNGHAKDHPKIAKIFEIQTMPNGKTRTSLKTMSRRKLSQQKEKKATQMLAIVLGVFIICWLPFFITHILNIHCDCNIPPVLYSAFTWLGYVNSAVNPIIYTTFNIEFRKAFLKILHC
Muscarinic acetylcholine receptor M2, sequence (P08172 whole entry): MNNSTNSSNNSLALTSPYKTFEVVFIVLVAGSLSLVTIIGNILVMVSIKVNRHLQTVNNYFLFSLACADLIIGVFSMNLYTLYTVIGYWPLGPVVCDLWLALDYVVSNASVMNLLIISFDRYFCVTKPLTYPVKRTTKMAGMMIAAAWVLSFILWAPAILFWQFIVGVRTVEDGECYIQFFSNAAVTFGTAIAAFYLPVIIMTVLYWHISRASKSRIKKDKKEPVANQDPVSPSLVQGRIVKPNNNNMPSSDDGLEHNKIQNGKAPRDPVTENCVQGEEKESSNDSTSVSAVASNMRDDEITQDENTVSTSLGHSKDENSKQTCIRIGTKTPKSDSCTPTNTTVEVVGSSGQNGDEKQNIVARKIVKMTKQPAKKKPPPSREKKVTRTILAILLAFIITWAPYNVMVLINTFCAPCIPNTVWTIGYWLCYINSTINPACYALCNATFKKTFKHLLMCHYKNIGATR
Aurora kinase B, sequence (Q96GD4 whole entry): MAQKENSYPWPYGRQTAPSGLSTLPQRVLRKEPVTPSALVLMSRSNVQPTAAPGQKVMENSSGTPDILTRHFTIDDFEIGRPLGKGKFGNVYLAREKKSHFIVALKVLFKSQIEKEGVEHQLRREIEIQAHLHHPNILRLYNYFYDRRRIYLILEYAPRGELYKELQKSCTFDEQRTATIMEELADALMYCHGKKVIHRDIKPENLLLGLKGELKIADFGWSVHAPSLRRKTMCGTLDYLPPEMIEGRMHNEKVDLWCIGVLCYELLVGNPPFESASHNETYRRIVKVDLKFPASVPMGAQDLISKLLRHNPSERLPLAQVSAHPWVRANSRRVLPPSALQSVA

O=C(Nc1c[nH]nc1-c1nc2ccc(CN3CCOCC3)cc2[nH]1)NC1CC1 [AT-9283]
IC50 (K562): 0.26 µM | IC50 (NOMO-1): > 10 µM

Cc1sc2c(c1C)C(c1ccc(Cl)cc1)=N[C@@H](CC(=O)OC(C)(C)C)c1nnc(C)n1-2
half-life [1]: 2.3 h | Cmax [2]: 0.84 µM | AUC [3]: 2 µM·h

CCNC(=O)C[C@@H]1N=C(c2ccc(Cl)cc2)c2cc(OC)ccc2-n2c(C)nnc21 [MOLIBRESIB]
IC50 [4]: > 10 µM | IC50 [5]: > 100 µM | IC50 [6]: > 50 µM | IC50 (Aurora kinase B): > 25 µM | IC50 [7]: 12.6 µM | IC50 [8]: > 15.8 µM | IC50 [9]: > 40 µM | IC50 [10]: > 50 µM | IC50 [11]: > 40 µM | IC50 (D(1A) dopamine receptor): > 31.6 µM | IC50 [12]: > 25 µM | IC50 [13]: 15.8 µM | IC50 [14]: > 15.8 µM | IC50 (Vasopressin V1a receptor): > 50 µM | IC50 [15]: > 10 µM | IC50 [16]: > 40 µM | IC50 (Mu-type opioid receptor): > 100 µM | IC50 (D(2) dopamine receptor): > 100 µM | IC50 [17]: > 25 µM | IC50 [18]: > 15.1 µM | IC50 [19]: > 100 µM | IC50 [20]: > 25 µM | IC50 [21]: > 25 µM | IC50 [22]: > 25 µM | IC50 [23]: > 100 µM | half-life at 36 h (in vivo): 1.6 h | IC50 [24]: 79 µM | IC50 [25]: ≥ 10 µM | IC50 [26]: > 31.6 µM | IC50 (MV4-11; Homo sapiens, MV4-11, 72 h): 0.102 µM | IC100 (MV4-11; time 72 hrs): 723 nM | IC50 [27]: > 100 µM | IC50 (Histamine H1 receptor): > 40 µM | AUC [28]: 40.3 µM·h | Cmax [29]: 21.9 µM | IC50 (Substance-P receptor): > 40 µM
